# Reference: US20160235752A1, “COMPOSITIONS, METHODS OF USE, AND METHODS OF TREATMENT” (THE UNIVERSITY OF NEW ORLEANS, priority 2013, published 2016)
# Key:
# [1] = system: Candida glabrata (ATCC no. 48435); assay: MIC determination by broth microdilution (NCCLS), visual scoring; assay type: cell-based; conditions: for MIC80: Nakaseomyces glabratus, ATCC48435, read-out: MIC80 C. glabrata
# Method: The antifungal activity of the 2,4,6-pyrimidinetrione analogs shown in Schemes 2-6 were evaluated in vitro using Candida albicans (ATCC no. 10231) and Candida glabrata (ATCC no 48435). All assays were done in accordance with NCCLS reference documents^29. The results of these screenings are summarized in Tables 1-9 as the minimal inhibitory concentrations that inhibited more than 80% fungal growth as compared to the positive controls in 1% DMSO and RPMI media. All MIC screens were done using a visual scoring method as opposed to spectroscopic methods of analysis, due to the physical properties of many of the compounds altering their absorbance spectra relative to the positive, negative and drug controls.
# None of the compounds tested over the course of these studies were soluble in water and DMSO was used to dilute each compound tested. Master stock concentrations of all tested compounds were prepared to ensure that the maximum final concentration of DMSO was 1% or less. Subsequent 2-fold serial dilutions were made using sterile water to a final concentration of 1280-5.00 μg/ml. A final 10-fold dilution of each drug was made by aliquotting 0.1 mL of each drug dilution into 0.9 mL of fungal suspension in RPMI 1640 media with 10 mM HEPES buffer added (see methodology below), giving final concentrations tested in the range of 128-0.5 μg/ml.
# Antifungal susceptibility studies and minimal inhibitory concentrations (MIC) values for Candida albicans (ATCC no. 10231) and Candida glabrata (ATCC no. 48435) were determined by the broth microdilution technique in accordance with NCCLS reference documents. Microdilution panels ranged from 0.5 to 128 μg/mL. All organisms were subcultured on Sabouraud agar and passaged to ensure purity and viability. The initiating inocula were prepared by picking 5-7 isolated colonies ˜1 mm in diameter from freshly prepared YM agar plates. Colonies were resuspended in sterile water, vortexed and the cell density was adjusted spectrophotometrically to the transmittance of a 0.5 McFarland standard at a wavelength of 530 nm, to yield a stock suspension of 1×10^6-5×10^6 cells/mL. The stock was allowed to hydrate for 30 minutes at room temperature. A working suspension was then made by diluting the stock 1:50 with RPMI 1640 media containing HEPES buffer. The working suspension was used for all assays. The plates were incubated at 35° C. for 48-72 hours in a humid atmosphere. Growth was scored visually. MIC values are defined as the lowest concentration of agent that prevents any discernible growth, ˜80% reduction of growth, as compared with drug-free control wells. All assays were run in parallel using either fluconazole or amphotericin B at the NCCLS recommended concentrations^29 as a drug control (Sigma-Aldrich).
# [2] = system: Candida albicans (ATCC no. 10231); assay: as above; assay type: cell-based; conditions: for MIC80: Candida albicans, ATCC10231, read-out: MIC80 C. albicans
# Method in brief: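 NCCLS broth microdilution in RPMI 1640 with 10 mM HEPES, final compound 0.5–128 μg/mL, DMSO ≤1%. Inoculum from 0.5 McFarland stock diluted 1:50; incubated 35 °C for 48–72 h. MIC scored visually as lowest concentration giving ~80% growth reduction versus drug-free wells.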
# [3] = Table 5, Schiff Bases of 5-acylpyrimidinetriones
# [4] = Table 8, N-Acylhydrazones of 5-Acylpyrimidinetriones
# [5] = Table 7, Phenylhydrazones of 5-Acylpyrimidinetriones
# [6] = Table 1, 5-Acyl-2,4,6-pyrimidinetriones, >80% growth inhibition, RPMI, 1% DMSO
# [7] = Table 4, 5,5-Dialkylated Pyrimidinetriones
# [8] = Table 2, 5-Arylidene-2,4,6-pyrimidinetriones
# [9] = Table 3, 5-Alkylated Pyrimidinetriones
compound,measurement,setting,value
O=C1NC(=O)C(C=Nc2ccccc2)C(=O)N1 [BA89],MIC80 C. glabrata,[1]; [3],"— (none of the 5-acyl-2,4,6-pyrimidinetriones, 5-alkylated pyrimidinetriones or the 5,5-dialkylated pyrimidinetriones showed antifungal activity through 125 μg/mL)"
same,MIC80 C. albicans,[2]; [3],"— (none of the 5-acyl-2,4,6-pyrimidinetriones, 5-alkylated pyrimidinetriones or the 5,5-dialkylated pyrimidinetriones showed antifungal activity through 125 μg/mL)"
COC(=O)NN=CC1C(=O)N(C)C(=O)N(C)C1=O [BA76],MIC80 C. glabrata,[1]; [4],"— (none of the 5-acyl-2,4,6-pyrimidinetriones, 5-alkylated pyrimidinetriones or the 5,5-dialkylated pyrimidinetriones showed antifungal activity through 125 μg/mL)"
same,MIC80 C. albicans,[2]; [4],"— (none of the 5-acyl-2,4,6-pyrimidinetriones, 5-alkylated pyrimidinetriones or the 5,5-dialkylated pyrimidinetriones showed antifungal activity through 125 μg/mL)"
CN1C(=O)C(C(=NNc2ccc([N+](=O)[O-])cc2[N+](=O)[O-])c2ccc(O)cc2)C(=O)N(C)C1=O [BA34],MIC80 C. glabrata,[1]; [5],"— (none of the 5-acyl-2,4,6-pyrimidinetriones, 5-alkylated pyrimidinetriones or the 5,5-dialkylated pyrimidinetriones showed antifungal activity through 125 μg/mL)"
same,MIC80 C. albicans,[2]; [5],"— (none of the 5-acyl-2,4,6-pyrimidinetriones, 5-alkylated pyrimidinetriones or the 5,5-dialkylated pyrimidinetriones showed antifungal activity through 125 μg/mL)"
O=C1NC(=O)C(C=Nc2ccc(O)cc2)C(=O)N1 [BA81],MIC80 C. glabrata,[1]; [3],"— (none of the 5-acyl-2,4,6-pyrimidinetriones, 5-alkylated pyrimidinetriones or the 5,5-dialkylated pyrimidinetriones showed antifungal activity through 125 μg/mL)"
same,MIC80 C. albicans,[2]; [3],"— (none of the 5-acyl-2,4,6-pyrimidinetriones, 5-alkylated pyrimidinetriones or the 5,5-dialkylated pyrimidinetriones showed antifungal activity through 125 μg/mL)"
O=C1NC(=O)C(C(=O)c2cc([N+](=O)[O-])cc([N+](=O)[O-])c2)C(=O)N1 [BA8],MIC80 C. glabrata,[1]; [6],"— (none of the 5-acyl-2,4,6-pyrimidinetriones, 5-alkylated pyrimidinetriones or the 5,5-dialkylated pyrimidinetriones showed antifungal activity through 125 μg/mL)"
same,MIC80 C. albicans,[2]; [6],"— (none of the 5-acyl-2,4,6-pyrimidinetriones, 5-alkylated pyrimidinetriones or the 5,5-dialkylated pyrimidinetriones showed antifungal activity through 125 μg/mL)"
CN(C)c1ccc(CC2(Cc3ccc(N(C)C)cc3)C(=O)NC(=O)NC2=O)cc1 [BA71],MIC80 C. glabrata,[1]; [7],"— (none of the 5-acyl-2,4,6-pyrimidinetriones, 5-alkylated pyrimidinetriones or the 5,5-dialkylated pyrimidinetriones showed antifungal activity through 125 μg/mL)"
same,MIC80 C. albicans,[2]; [7],"— (none of the 5-acyl-2,4,6-pyrimidinetriones, 5-alkylated pyrimidinetriones or the 5,5-dialkylated pyrimidinetriones showed antifungal activity through 125 μg/mL)"
CC(=Nc1ccc(O)cc1)C1C(=O)NC(=O)NC1=O [BA87],MIC80 C. glabrata,[1]; [3],"— (none of the 5-acyl-2,4,6-pyrimidinetriones, 5-alkylated pyrimidinetriones or the 5,5-dialkylated pyrimidinetriones showed antifungal activity through 125 μg/mL)"
same,MIC80 C. albicans,[2]; [3],"— (none of the 5-acyl-2,4,6-pyrimidinetriones, 5-alkylated pyrimidinetriones or the 5,5-dialkylated pyrimidinetriones showed antifungal activity through 125 μg/mL)"
CN1C(=O)C(=Cc2ccc(O)cc2O)C(=O)N(C)C1=O [BA48],MIC80 C. glabrata,[1]; [8],2 µg/mL
same,MIC80 C. albicans,[2]; [8],"— (none of the 5-acyl-2,4,6-pyrimidinetriones, 5-alkylated pyrimidinetriones or the 5,5-dialkylated pyrimidinetriones showed antifungal activity through 125 μg/mL)"
"CN1C(=O)C(/C=N/Nc2ccc([N+](=O)[O-])cc2)C(=O)N(C)C1=O [BA23, 1,3-Dimethyl-5-{(E)-[2-(4-nitrophenyl)hydrazinylidene]methyl}pyrimidine-2,4,6-trione]",MIC80,[1],2 µg/mL
same,MIC80,[2],2 µg/mL
"O=C1NC(=O)C(=Cc2ccccc2O)C(=O)N1 [BA47, 5-(2-hydroxybenzylidene)pyrimidine-2,4,6-trione]",MIC80,[1],8 µg/mL
same,MIC80,[2],> 125 µg/mL
O=C1NC(=O)N(c2ccccc2)C(=O)C1C(=NNc1ccc([N+](=O)[O-])cc1[N+](=O)[O-])c1ccccc1 (stereo not drawn) [BA32],MIC80 C. glabrata,[1]; [5],"— (none of the 5-acyl-2,4,6-pyrimidinetriones, 5-alkylated pyrimidinetriones or the 5,5-dialkylated pyrimidinetriones showed antifungal activity through 125 μg/mL)"
same,MIC80 C. albicans,[2]; [5],"— (none of the 5-acyl-2,4,6-pyrimidinetriones, 5-alkylated pyrimidinetriones or the 5,5-dialkylated pyrimidinetriones showed antifungal activity through 125 μg/mL)"
O=C1NC(=O)C(Cc2ccc3ccccc3c2)C(=O)N1 [BA69],MIC80 C. glabrata,[1]; [9],"— (none of the 5-acyl-2,4,6-pyrimidinetriones, 5-alkylated pyrimidinetriones or the 5,5-dialkylated pyrimidinetriones showed antifungal activity through 125 μg/mL)"
same,MIC80 C. albicans,[2]; [9],"— (none of the 5-acyl-2,4,6-pyrimidinetriones, 5-alkylated pyrimidinetriones or the 5,5-dialkylated pyrimidinetriones showed antifungal activity through 125 μg/mL)"
O=C1NC(=O)C(C=Nc2ccccc2O)C(=O)N1 [BA93],MIC80 C. glabrata,[1]; [3],"— (none of the 5-acyl-2,4,6-pyrimidinetriones, 5-alkylated pyrimidinetriones or the 5,5-dialkylated pyrimidinetriones showed antifungal activity through 125 μg/mL)"
same,inhibitory activity of Candida albicans,"[2]; Schiff base derivatives, Table 5",showed inhibitory activity
same,MIC80 C. albicans,"[2]; Table 5, values marked *: compound displayed MIC with <50% inhibition",8* μg/mL
O=C1NC(=O)C(=Cc2ccc3ccccc3c2)C(=O)N1 [BA40],MIC80 C. glabrata,[1]; [8],"— (none of the 5-acyl-2,4,6-pyrimidinetriones, 5-alkylated pyrimidinetriones or the 5,5-dialkylated pyrimidinetriones showed antifungal activity through 125 μg/mL)"
same,MIC80 C. albicans,[2]; [8],125 µg/mL
O=C1NC(=O)C(C(=NNc2ccc(C(=O)O)cc2)C2C(=O)NC(=O)NC2=O)C(=O)N1 [BA38],MIC80 C. glabrata,[1]; [5],125 µg/mL
same,MIC80 C. albicans,[2]; [5],"— (none of the 5-acyl-2,4,6-pyrimidinetriones, 5-alkylated pyrimidinetriones or the 5,5-dialkylated pyrimidinetriones showed antifungal activity through 125 μg/mL)"
CC(=O)C1C(=O)NC(=O)NC1=O [BA20],MIC80,[1],> 125 µg/mL
same,MIC80,[2],> 125 µg/mL
CN1C(=O)C(C=Nc2ccncc2)C(=O)N(C)C1=O [BA82],MIC80 C. glabrata,[1]; [3],"— (none of the 5-acyl-2,4,6-pyrimidinetriones, 5-alkylated pyrimidinetriones or the 5,5-dialkylated pyrimidinetriones showed antifungal activity through 125 μg/mL)"
same,MIC80 C. albicans,[2]; [3],"— (none of the 5-acyl-2,4,6-pyrimidinetriones, 5-alkylated pyrimidinetriones or the 5,5-dialkylated pyrimidinetriones showed antifungal activity through 125 μg/mL)"
"C/C(=N\Nc1ccc([N+](=O)[O-])cc1[N+](=O)[O-])C1C(=O)NC(=O)NC1=O [BA26, 5-{(1E)-1-[2-(2,4-Dinitrophenyl)hydrazinylidene]ethyl}pyrimidine-2,4,6-trione]",MIC80,[1],> 125 µg/mL
same,MIC80,[2],> 125 µg/mL
O=C1NC(=O)N(c2ccccc2)C(=O)C1C(=O)c1ccc(O)cc1 (stereo not drawn) [BA13],MIC80 C. glabrata,[1]; [6],"— (none of the 5-acyl-2,4,6-pyrimidinetriones, 5-alkylated pyrimidinetriones or the 5,5-dialkylated pyrimidinetriones showed antifungal activity through 125 μg/mL)"
same,MIC80 C. albicans,[2]; [6],"— (none of the 5-acyl-2,4,6-pyrimidinetriones, 5-alkylated pyrimidinetriones or the 5,5-dialkylated pyrimidinetriones showed antifungal activity through 125 μg/mL)"
CN1C(=O)C(C(=NNc2ccc(C(=O)O)cc2)c2ccccc2)C(=O)N(C)C1=O [BA33],MIC80 C. glabrata,[1]; [5],"— (none of the 5-acyl-2,4,6-pyrimidinetriones, 5-alkylated pyrimidinetriones or the 5,5-dialkylated pyrimidinetriones showed antifungal activity through 125 μg/mL)"
same,MIC80 C. albicans,[2]; [5],"— (none of the 5-acyl-2,4,6-pyrimidinetriones, 5-alkylated pyrimidinetriones or the 5,5-dialkylated pyrimidinetriones showed antifungal activity through 125 μg/mL)"
CCCCN1C(=O)NC(=O)C(C(=NNc2ccc([N+](=O)[O-])cc2[N+](=O)[O-])c2ccccc2)C1=O (stereo not drawn) [BA31],MIC80 C. glabrata,[1]; [5],"— (none of the 5-acyl-2,4,6-pyrimidinetriones, 5-alkylated pyrimidinetriones or the 5,5-dialkylated pyrimidinetriones showed antifungal activity through 125 μg/mL)"
same,MIC80 C. albicans,[2]; [5],"— (none of the 5-acyl-2,4,6-pyrimidinetriones, 5-alkylated pyrimidinetriones or the 5,5-dialkylated pyrimidinetriones showed antifungal activity through 125 μg/mL)"
CC(C)C1C(=O)NC(=O)N(c2ccccc2)C1=O (stereo not drawn) [BA61],MIC80 C. glabrata,[1]; [9],"— (none of the 5-acyl-2,4,6-pyrimidinetriones, 5-alkylated pyrimidinetriones or the 5,5-dialkylated pyrimidinetriones showed antifungal activity through 125 μg/mL)"
same,MIC80 C. albicans,[2]; [9],"— (none of the 5-acyl-2,4,6-pyrimidinetriones, 5-alkylated pyrimidinetriones or the 5,5-dialkylated pyrimidinetriones showed antifungal activity through 125 μg/mL)"
